Common to all, as to format: cell-based
Series [1] relates to Huh7 cells. Kind of series: MTT cell viability assay, Huh7 cells, 72 h. Conditions: Homo sapiens, read-out: Huh7 CC50. From the text: (§1) Huh-7 cells and derived from hepatocellular carcinoma cells, and were donated by Dr. Xuanyong Lu, (Drexel University College of Medicine, Doylestown, Pa.). THLE-2 were purchased from American Type Culture Collection (Manassas, Va.). PH5CH were donated by Dr. Masayuki Noguchi (University of Tsukuba, Ibaraki, Japan). THLE-2 and PH5CH have been immortalized through stable transfection of the SV40 large T antigen in normal hepatocytes, and are thus cell lines that are representative of normal hepatocytes rather than HCC cells. THLE2 have been confirmed to not form tumors in athymic mice. All cell lines were cultured and maintained in 5% CO2 at 37° C. Huh-7 were maintained in the culture media DMEM/F12 (Dulbecco's Modified Eagle Medium) with 10% Fetal bovine serum (FBS), 100 μg/mL penicillin, 100 units/mL streptomycin, and 50 μg/mL normocin. THLE-2 and PH5CH were maintained in the culture media Brochial Epithelial Growth Media (BEGM) with 10% FBS, 100 μg/mL penicillin, 100 units/mL streptomycin, with the following additives form the prepackaged kit: Bovine pituitary extract (BPE), insulin, hydrocortisone, retinoic acid, transferrin, triiodothyronine, supplemented with 5 ng/ml human epidermal growth factor and 70 ng/ml phosphoethanolamine (Lonza Walkersville Inc., Walkersville, Md.).
(§2) Huh7 cells were plated on 96-well plates at 2.0×10^4 cells per well to permit grow in the presence of compounds of the disclosure. Compounds of the disclosure were prediluted and transferred to cell plates by automated liquid handling. Cells were incubated with compounds of the disclosure for 72 hours, after which culture growth and viability were assessed by addition of 50 μg/mL 3-(4,5-Dimethyl-2-thiazolyl)-2,5-diphenyl-2H-tetrazolium bromide (MTT) incubation for 4 hours at 37° C. Solubilization buffer (0.01M HCl, 10% SDS) was added followed by incubation at 37° C. overnight. Absorbance was measured at 570 nm (reference 630 nm). Compound of the disclosure were tested in Huh7, THLE-2 and PH5CH, over eight-point dilutions in half-log steps, testing 50.0, 16.6, 5.0, 1.66, 0.5, 0.166, 0.05, and 0.016 μM in 0.5% DMSO, with each concentration in duplicate wells. […] Each compound was tested from 2 to 7 times in separate assay trials.

Series [2] is described as follows: MTT cell viability assay, THLE2 cells, 72 h. Conditions: human, immortalized normal hepatocytes THLE2, 72 hours, 0.016-50.0 μM tested.
Description: as §1, with “THLE2 have been confirmed to not form tumors in athymic mice.” left out
as §2
(§3) Selectivity of toxicity in HCC-derived cells over normal liver-derived cells is important for the purposes of developing a therapy that specifically targets the cancer with low toxicity for […]. The Selective Index (SI) is the ratio of CC50 in normal cells (THLE2 or PH5CH) over the CC50 in the liver cancer derived cells; thus, the higher the number, the lower the potential toxicity at an efficacious dose.

A short description of series [3]: MTT cell viability assay, PH5CH cells, 72 h. The following applies: human, immortalized normal hepatocytes PH5CH, 0.016-50.0 μM tested.
Description: as §1, §2, §3

The mark [4] stands for this setting: Huh-7, hepatocellular carcinoma derived Huh7 cells, 72 hours, MTT, 0.016-50.0 μM tested.

Where two headings read alike, the source gives them in different places.

Take `O=C(NCc1ccccc1)c1sc(Nc2ncccn2)nc1-c1ccccn1` [Entry 37]: in series [1] (setting [4]), the CC50 worked out at 17.7 µM. The CC50 at 72 h in series [2] was no less than 50 µM; in series [3], 31.5 µM.

Take `Oc1cccc(-c2csc(Nc3ncccn3)n2)n1` [Entry 28]: the CC50 in series [1] (setting [4]) is 46.2 µM. The CC50 at 72 h in series [2] and in series [3] was no less than 50 µM throughout.

With `Brc1cnc(Nc2nc(-c3ccccn3)cs2)nc1` [Entry 14], the 50% cytotoxic concentration (CC50) in series [1] (setting [4]) worked out at 31.8 µM. The same molecule showed a CC50 at 72 h in series [2] of 41 µM.

In the case of `Cc1ccc2nc(Nc3nc(-c4ccccn4)cs3)sc2c1` [Entry 23], the 50% cytotoxic concentration (CC50) in series [1] (setting [4]) is 4.92 µM. The CC50 at 72 h in series [2] amounted to 3.96 µM; in series [3], 3.97 µM.

Turning to `CN(c1ncccn1)c1nc(-c2ccccn2)cs1` [Entry 15], the half-maximal cytotoxic concentration (CC50) in series [1] (setting [4]) was found to be 5.32 µM. Further, the CC50 at 72 h was 49.1 µM in series [2] and 49.7 µM in series [3].

For the molecule `CNC(=O)c1sc(Nc2ncccn2)nc1-c1ccccn1` [Entry 39], the CC50 in series [1] (setting [4]) was determined as 13 µM. Also, the figures for the CC50 at 72 h in series [2] and in series [3] were 10.3 µM and 2.89 µM, respectively.

On to `Brc1cccc(-c2csc(Nc3ncccn3)n2)n1` [Entry 10], for which the CC50 in series [1] (setting [4]) came to 7.82 µM. This molecule also returned a CC50 at 72 h in series [2] of 9.75 µM.

Take `Cc1c(Cl)cccc1Nc1nc(-c2ccccn2)cs1` [Entry 46]: the cytotoxic concentration (CC50) in series [1] (setting [4]) was 3.5 µM.

For the molecule `CCCCCc1sc(Nc2ncccn2)nc1-c1ccccn1` [Entry 25], the CC50 in series [1] (setting [4]) came out at 25.9 µM. Also, the cytotoxic concentration (CC50) at 72 h in series [2] and in series [3] was no less than 50 µM throughout.

Take `CCCC(=O)OCc1sc(Nc2ncccn2)nc1-c1ccccn1` [Entry 43]: the CC50 in series [1] (setting [4]) was determined as 11 µM. Further, the CC50 at 72 h in series [2] and in series [3] was no less than 50 µM in each case.

With `Clc1cnc(Nc2nc(-c3ccccn3)cs2)nc1` [Entry 13], the CC50 in series [1] (setting [4]) came to 35 µM. In addition, in series [2], the CC50 at 72 h is no less than 50 µM.

For `OCc1sc(Nc2ncccn2)nc1-c1ccccn1` [Entry 20], in series [1] (setting [4]), the CC50 amounted to 11.3 µM. For the same molecule, the values for the CC50 at 72 h in series [2] and in series [3] were 31.1 µM and 46.9 µM, respectively.

As for `Cc1ccnc(-c2csc(Nc3ncccn3)n2)c1` [Entry 8], the CC50 in series [1] (setting [4]) came out at 0.563 µM. Besides, the CC50 at 72 h in series [2] amounted to 14 µM; in series [3], 34 µM.

As for `OCCN(c1ncccn1)c1nc(-c2ccccn2)cs1` [Entry 17], in series [1] (setting [4]), the CC50 was determined as 48.9 µM. Further, the CC50 at 72 h in series [2] and in series [3] was no less than 50 µM throughout.

Take `c1ccc(-c2csc(Nc3ncccn3)n2)nc1` [Entry 1]: the 50% cytotoxic concentration (CC50) in series [1] (setting [4]) turned out to be 1.39 µM. The results for the CC50 at 72 h in series [2] and in series [3] were 40 µM and no less than 50 µM, respectively.

As for `c1ccc(CN(c2ncccn2)c2nc(-c3ccccn3)cs2)cc1` [Entry 18], in series [1] (setting [4]), the half-maximal cytotoxic concentration (CC50) was no less than 50 µM. Further, the results for the CC50 at 72 h in series [2] and in series [3] were 49.8 µM and 46.9 µM, respectively.

Take `c1cnc(Nc2nc(-c3cccnc3)cs2)nc1` [Entry 4]: the half-maximal cytotoxic concentration (CC50) in series [1] (setting [4]) turned out to be 6.3 µM. Further, the CC50 at 72 h in series [2] is 8.66 µM.

Turning to `NC(=O)c1sc(Nc2ncccn2)nc1-c1ccccn1` [Entry 41], in series [1] (setting [4]), the CC50 is no less than 50 µM. The CC50 at 72 h is 26.6 µM in series [2] and no less than 50 µM in series [3].

For `CC(C)N(c1ncccn1)c1nc(-c2ccccn2)cs1` [Entry 16], the CC50 in series [1] (Huh-7, 72 h) is 25.7 µM. In addition, the CC50 at 72 h in series [2] and in series [3] was no less than 50 µM each time.

Take `COC(=O)c1sc(Nc2ncccn2)nc1-c1ccccn1` [Entry 38]: the CC50 in series [1] (setting [4]) was determined as 1.25 µM. The results for the CC50 at 72 h in series [2] and in series [3] were 29.4 µM and 38.6 µM, respectively.

For `CCOC(=O)c1sc(Nc2ncccn2)nc1-c1cc(C)ccn1` [Entry 35], in series [1] (setting [4]), the CC50 stood at 4.72 µM. In addition, the CC50 at 72 h is 37.2 µM in series [2] and 39.2 µM in series [3].

Regarding `c1ccc(Nc2nc(-c3ccccc3)cs2)cc1` [Entry 7], the CC50 in series [1] (setting [4]) is 10.3 µM. Also, the midpoint of cytotoxicity in series [2], the CC50 at 72 h, lay at 21.1 µM.

Regarding `c1ccc(-c2csc(Nc3cnccn3)n2)nc1` [Entry 11], the CC50 in series [1] (setting [4]) was 5 µM. In series [2], the CC50 at 72 h worked out at 0.539 µM.

Regarding `Cc1ccnc(Nc2nc(-c3ccccn3)cs2)n1` [Entry 30], the CC50 in series [1] (setting [4]) was no less than 50 µM. Also, the CC50 at 72 h in series [2] and in series [3] was no less than 50 µM each time.

`CCOC(=O)c1sc(Nc2ncccn2)nc1-c1ccccn1` [Entry 19]: the 50% cytotoxic concentration (CC50) in series [1] (setting [4]) is 0.362 µM. The half-maximal cytotoxic concentration (CC50) at 72 h in series [2] was 38.7 µM; in series [3] it was 44 µM.

Consider `CC(=O)OCc1sc(Nc2ncccn2)nc1-c1ccccn1` [Entry 42], for which the CC50 in series [1] (setting [4]) is 39.3 µM. Moreover, the CC50 at 72 h in series [2] and in series [3] was no less than 50 µM throughout.

On to `c1cnc(Nc2nc(-c3ccncc3)cs2)nc1` [Entry 5], for which the CC50 in series [1] (setting [4]) came out at 14.2 µM. The molecule also came in with a CC50 at 72 h in series [2] of 48.5 µM.

For the molecule `c1cnc(Nc2nc(-c3ccc4ccccc4n3)cs2)nc1` [Entry 32], the CC50 in series [1] (setting [4]) is no less than 50 µM. The CC50 at 72 h is 8.02 µM in series [2] and no less than 50 µM in series [3].

Regarding `CN(Cc1cnc2nc(N)nc(N)c2n1)c1ccc(C(=O)NC(CCC(=O)NCCOCCOCCOCCOCCOCCNC(=O)c2sc(Nc3ncccn3)nc2-c2ccccn2)C(=O)OC(C)(C)C)cc1` (stereo not drawn) [Entry 40], in series [1] (setting [4]), the CC50 was determined as 34.8 µM. The CC50 at 72 h in series [2] and in series [3] was no less than 50 µM in each case.

For `c1ccc(-c2nc(Nc3ncccn3)sc2C2CCCCC2)nc1` [Entry 33], the CC50 in series [1] (setting [4]) is no less than 50 µM. Further, the figures for the CC50 at 72 h in series [2] and in series [3] were 3.54 µM and no less than 50 µM, respectively.

Consider `CCOC(=O)c1sc(Nc2ncccn2)nc1-c1cccc(C)n1` [Entry 36], for which the CC50 in series [1] (setting [4]) is no less than 50 µM. The CC50 at 72 h in series [2] and in series [3] was no less than 50 µM each time.

As for `Brc1sc(Nc2ncccn2)nc1-c1ccccn1` [Entry 9], the CC50 in series [1] (setting [4]) came to 2.53 µM. This molecule returned a CC50 at 72 h in series [2] of 29.9 µM.

On to `N#Cc1sc(Nc2ncccn2)nc1-c1ccccn1` [Entry 47], for which the CC50 in series [1] (setting [4]) is no more than 0.016 µM. Also, the CC50 at 72 h in series [2] and in series [3] was no less than 50 µM each time.

As to `Cc1cnc(-c2csc(Nc3ncccn3)n2)c(C)c1` [Entry 27], the cytotoxic concentration (CC50) in series [1] (setting [4]) is 2.74 µM. The CC50 at 72 h in series [2] was 2.23 µM; in series [3], 47.6 µM.

On to `Oc1cccc(Nc2nc(-c3ccccc3)cs2)c1` [Entry 45], for which the cytotoxic concentration (CC50) in series [1] (setting [4]) is 8 µM. The CC50 at 72 h in series [2] was no less than 50 µM.

With `c1ccc(-c2csc(Nc3ncccn3)n2)cc1` [Entry 3], the CC50 in series [1] (setting [4]) was 6.43 µM. Moreover, the cytotoxic concentration (CC50) at 72 h in series [2] amounted to 9.16 µM.

In the case of `FC(F)(F)c1ccnc(Nc2nc(-c3ccccn3)cs2)n1` [Entry 34], the CC50 in series [1] (setting [4]) came out at 26.6 µM. Besides, the CC50 at 72 h is 37.8 µM in series [2] and no less than 50 µM in series [3].

In the case of `c1ccc(-c2csc(Nc3ccncn3)n2)nc1` [Entry 12], the CC50 in series [1] (setting [4]) came to 3.05 µM. The same molecule came in with a CC50 at 72 h in series [2] of 4.47 µM.

Turning to `Cc1sc(Nc2ncccn2)nc1-c1ccccn1` [Entry 22], in series [1] (setting [4]), the CC50 was found to be 5.92 µM. The CC50 at 72 h amounted to 42.9 µM in series [2] and 42 µM in series [3].

As to `CCOC(=O)c1sc(Nc2nccc(C)n2)nc1-c1ccccn1` [Entry 31], the CC50 in series [1] (setting [4]) is no more than 0.016 µM. Besides, the CC50 at 72 h in series [2] and in series [3] was no less than 50 µM in each case.

With `c1ccc(Nc2nc(-c3ccccn3)cs2)cc1` [Entry 6], the half-maximal cytotoxic concentration (CC50) in series [1] (setting [4]) is 6.53 µM.

As for `CC(C)(C)OC(=O)c1sc(N(c2ncccn2)C(C)(C)C)nc1-c1ccccn1` [Entry 44], the CC50 in series [1] (Huh-7, 72 h) was 20.5 µM. Besides, the CC50 at 72 h in series [2] and in series [3] was no less than 50 µM throughout.
